Measured values published in patent US20200048259A1, “KDM5 INHIBITORS” (priority 2016, published 2020).

Biological target: T1, Full-length KDM5B enzyme (Homo sapiens, UniProt Q9UGL1)
T1 construct: recombinant protein from baculovirus-transfected Sf21 cells: full-length KDM5B; MW=176.825 kDa; host or cells: baculovirus-transfected Sf21 insect cells
Assay: KDM5B TR-FRET Enzyme Activity Assay (LANCE)
Assay type: biochemical
Details: not given
Procedure: KDM5B TR-FRET Enzyme Activity Assay
KDM5B enzymatic activity was determined with the LANCE (Lanthanide Chelate Excite) TR-FRET (Time-resolved fluorescence resonance energy transfer) assay. […] Following a 30 minutes compound and enzyme incubation in a humidified chamber, each reaction was initiated by the addition of 1 μL 1× assay buffer containing […] biotinylated H3K4Me3 peptide, and 500 nM α-ketoglutarate. The final reaction in each well of 5 μL consists of 5 nM KDM5B, 500 nM biotinylated-peptide, and 500 nM α-ketoglutarate. De-methylation reactions were allowed to proceed for 60 minutes. Reactions were immediately quenched by the addition of 5 μL of 2× Lance Detection Buffer (PerkinElmer) with 0.5 mM EDTA and 2 nM of Eu-anti-H3K4Mel-2 antibody, and 30 nM of Streptavidin-conjugated Dylight 650 detection reagents. After 60 minutes incubation with detection reagents, reaction plates were read on a PerkinElmer EnVision plate reader using standard TR-FRET protocol. Briefly, excitation of donor molecules (Eu-chelate-anti-H3K4Me1-2-antibody) with a laser light source at 337 nm produces energy that can be transferred to Dylight-650 acceptor molecules if this donor:acceptor pair is within close proximity.
Fluorescence intensity at both 665 nm (acceptor) and 615 nm (donor) are measured and a TR-FRET ratio calculated for each well (acceptor intensity/donor intensity). IC50 values were determined by 4 parameter robust fit of TR-FRET ratio values vs. (Log 10) compound concentrations.

T1 sequence (Q9UGL1 whole entry): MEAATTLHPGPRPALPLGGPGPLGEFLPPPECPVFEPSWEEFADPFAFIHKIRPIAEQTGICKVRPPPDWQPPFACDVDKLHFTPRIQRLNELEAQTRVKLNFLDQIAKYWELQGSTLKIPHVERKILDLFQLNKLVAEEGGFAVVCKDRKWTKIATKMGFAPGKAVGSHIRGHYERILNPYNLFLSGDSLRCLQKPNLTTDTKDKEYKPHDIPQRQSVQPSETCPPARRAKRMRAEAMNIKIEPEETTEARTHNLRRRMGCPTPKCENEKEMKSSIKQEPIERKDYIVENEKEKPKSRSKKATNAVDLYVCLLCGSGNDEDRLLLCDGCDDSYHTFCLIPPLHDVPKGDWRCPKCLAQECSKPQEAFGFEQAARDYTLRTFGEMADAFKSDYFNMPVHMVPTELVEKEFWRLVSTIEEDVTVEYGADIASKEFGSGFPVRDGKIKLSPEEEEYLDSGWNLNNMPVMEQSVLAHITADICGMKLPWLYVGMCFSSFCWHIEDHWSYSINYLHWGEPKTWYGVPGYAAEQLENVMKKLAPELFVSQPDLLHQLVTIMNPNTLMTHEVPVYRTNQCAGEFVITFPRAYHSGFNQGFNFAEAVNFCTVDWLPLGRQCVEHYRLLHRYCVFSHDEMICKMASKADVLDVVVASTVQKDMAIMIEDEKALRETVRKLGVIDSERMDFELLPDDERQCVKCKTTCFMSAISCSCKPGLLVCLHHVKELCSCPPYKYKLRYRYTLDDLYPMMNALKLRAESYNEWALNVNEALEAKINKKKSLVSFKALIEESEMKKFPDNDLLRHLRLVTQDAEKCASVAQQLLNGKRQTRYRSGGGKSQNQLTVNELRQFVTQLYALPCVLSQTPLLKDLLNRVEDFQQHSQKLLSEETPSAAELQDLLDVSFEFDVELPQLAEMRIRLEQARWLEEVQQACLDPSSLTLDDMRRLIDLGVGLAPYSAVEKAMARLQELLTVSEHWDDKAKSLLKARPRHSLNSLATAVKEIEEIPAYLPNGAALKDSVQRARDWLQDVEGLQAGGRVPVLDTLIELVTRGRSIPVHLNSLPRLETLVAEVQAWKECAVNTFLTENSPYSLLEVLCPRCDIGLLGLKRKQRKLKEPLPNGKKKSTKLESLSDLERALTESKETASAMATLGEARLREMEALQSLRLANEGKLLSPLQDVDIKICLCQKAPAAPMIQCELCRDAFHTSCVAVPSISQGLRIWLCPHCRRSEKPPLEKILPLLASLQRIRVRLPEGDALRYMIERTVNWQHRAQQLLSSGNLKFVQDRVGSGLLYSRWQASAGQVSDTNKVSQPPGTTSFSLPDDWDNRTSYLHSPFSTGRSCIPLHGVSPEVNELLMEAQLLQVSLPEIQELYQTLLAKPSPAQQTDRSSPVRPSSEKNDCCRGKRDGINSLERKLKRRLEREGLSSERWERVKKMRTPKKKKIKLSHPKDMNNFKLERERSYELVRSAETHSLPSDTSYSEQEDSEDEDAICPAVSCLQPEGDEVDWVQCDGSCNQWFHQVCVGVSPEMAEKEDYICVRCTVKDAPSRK

SMILES | IC50
Cc1nc2[nH]c(-c3ccc(Cl)cc3)cc(=O)n2n1 [Example 7-51, 5-(4-chlorophenyl)-2-methyl[1,2,4]triazolo[1,5-a]pyrimidin-7(4H)-one] | 14.2 µM
Cc1nc2[nH]c(-c3ccccc3Cl)cc(=O)n2n1 [Example 7-52, 5-(2-chlorophenyl)-2-methyl[1,2,4]triazolo[1,5-a]pyrimidin-7(4H)-one] | > 100 µM
Cc1nc2[nH]c(C3CCOCC3)cc(=O)n2n1 [Example 7-58, 2-methyl-5-(tetrahydro-2H-pyran-4-yl)[1,2,4]triazolo[1,5-a]pyrimidin-7(4H)-one] | > 100 µM
Cc1nc2[nH]c(C3CCCC3)cc(=O)n2n1 [Example 7-61, 5-cyclopentyl-2-methyl[1,2,4]triazolo[1,5-a]pyrimidin-7(4H)-one] | > 100 µM
Cc1nc2[nH]c(CC3CC3)cc(=O)n2n1 [Example 7-63, 5-(cyclopropylmethyl)-2-methyl[1,2,4]triazolo[1,5-a]pyrimidin-7(4H)-one] | > 100 µM
Cc1nc2[nH]c(-c3ccccc3)cc(=O)n2n1 [Example 7-69, 2-methyl-5-phenyl-[1,2,4]triazolo[1,5-a]pyrimidin-7(4H)-one] | 7.64 µM

The remaining lines, values ahead:

IC50 | SMILES
> 100 µM | CCCCc1cc(=O)n2nc(C)nc2[nH]1 [Example 7-49, 5-butyl-2-methyl[1,2,4]triazolo[1,5-a]pyrimidin-7(4H)-one]
> 100 µM | Cc1nc2[nH]c(CC3CCCC3)cc(=O)n2n1 [Example 7-56, 5-(cyclopentylmethyl)-2-methyl[1,2,4]triazolo[1,5-a]pyrimidin-7(4H)-one]
> 100 µM | Cc1nc2[nH]c(CC(C)(C)C)cc(=O)n2n1 [Example 7-57, 5-(2,2-dimethylpropyl)-2-methyl[1,2,4]triazolo[1,5-a]pyrimidin-7(4H)-one]
> 100 µM | Cc1nc2[nH]c(C3CCCCC3)cc(=O)n2n1 [Example 7-59, 5-cyclohexyl-2-methyl[1,2,4]triazolo[1,5-a]pyrimidin-7(4H)-one]

Same assay, conditions: 5 nM full-length KDM5B, biotinylated H3K4Me3 peptide, 500 nM α-ketoglutarate; ten point titration 100000 nM to 5.08 nM; read-out: IC50

SMILES | IC50
CCc1[nH]c2nc(C)nn2c(=O)c1C [Example 7-47, 5-ethyl-2,6-dimethyl[1,2,4]triazolo[1,5-a]pyrimidin-7(4H)-one] | 28.8 µM
Cc1nc2[nH]c(C(F)(F)F)c(C)c(=O)n2n1 [Example 7-48, 2,6-dimethyl-5-(trifluoromethyl)[1,2,4]triazolo[1,5-a]pyrimidin-7(4H)-one] | 29.6 µM
Cc1nc2[nH]c(C)c(F)c(=O)n2n1 [Example 7-50, 6-fluoro-2,5-dimethyl[1,2,4]triazolo[1,5-a]pyrimidin-7(4H)-one] | 70.5 µM
Cc1nc2[nH]c(-c3cccc(Cl)c3)cc(=O)n2n1 [Example 7-54, 5-(3-chlorophenyl)-2-methyl[1,2,4]triazolo[1,5-a]pyrimidin-7(4H)-one] | 12.3 µM
Cc1nc2[nH]c(C3CCC3)cc(=O)n2n1 [Example 7-62, 5-cyclobutyl-2-methyl[1,2,4]triazolo[1,5-a]pyrimidin-7(4H)-one] | 63.2 µM
Cc1nc2[nH]c(C3CC3)c(C)c(=O)n2n1 [Example 7-64, 5-cyclopropyl-2,6-dimethyl[1,2,4]triazolo[1,5-a]pyrimidin-7(4H)-one] | 44.2 µM
Cc1nc2[nH]c(C(F)(F)F)c(F)c(=O)n2n1 [Example 7-65, 6-fluoro-2-methyl-5-(trifluoromethyl)[1,2,4]triazolo[1,5-a]pyrimidin-7(4H)-one] | 28.2 µM
Cc1nc2[nH]c(C3CCC3)c(C)c(=O)n2n1 [Example 7-68, 5-cyclobutyl-2,6-dimethyl[1,2,4]triazolo[1,5-a]pyrimidin-7(4H)-one] | 22.8 µM

More lines, now with the values ahead:

IC50 | SMILES
37.5 µM | Cc1nc2[nH]c(-c3ccccc3F)cc(=O)n2n1 [Example 7-53, 5-(2-fluorophenyl)-2-methyl[1,2,4]triazolo[1,5-a]pyrimidin-7(4H)-one]
98.4 µM | Cc1nc2[nH]c(Cc3ccccc3)cc(=O)n2n1 [Example 7-55, 5-benzyl-2-methyl[1,2,4]triazolo[1,5-a]pyrimidin-7(4H)-one]
6.38 µM | CCc1c(C(F)(F)F)[nH]c2nc(C)nn2c1=O [Example 7-60, 6-ethyl-2-methyl-5-(trifluoromethyl)[1,2,4]triazolo[1,5-a]pyrimidin-7(4H)-one]
27.8 µM | Cc1nc2[nH]c(C3CCCC3)c(C)c(=O)n2n1 [Example 7-66, 5-cyclopentyl-2,6-dimethyl[1,2,4]triazolo[1,5-a]pyrimidin-7(4H)-one]
53.6 µM | Cc1nc2[nH]c(C3CCCCC3)c(C)c(=O)n2n1 [Example 7-67, 5-cyclohexyl-2,6-dimethyl[1,2,4]triazolo[1,5-a]pyrimidin-7(4H)-one]
